Laboratory results reported in patent US20240269308A1, “PRODRUGS OF TOPOISOMERASE I INHIBITOR FOR ADC CONJUGATIONS AND METHODS OF USE THEREOF” (priority 2022, published 2024).
Like-named read-outs stand apart in the source and are kept apart here.

Columns and labels:
NCI-H1975 cells = assay: anti-Her2 viability assay, NCI-H1975 cells (target negative); type: cell-based; conditions: NCI-H1975 target negative cells, 6 days; for IC50: Homo sapiens, 144 h, read-out: H1975 IC50
Description: (§1) The anti-Her2 viability assay protocol is following.
(§2) 0.1% BSA was added to the Opti-MEM reduced serum media [Gibco, cat #31985-070]. This assay media was used for the dilution of ADC and free drug.
(§3) Cells were seeded in their growth media into 96 well plates (Thermo #136101) one day prior to adding ADCs: 1000/well SKBR3 cells in 80 uL media (target positive cells), 1000/well NCI-N87 cells in 80 uL media (target positive cells), 1000/well Calu-3 in 80 uL media (target positive cells), and 800/well NCI-H1975 cells in 80ul media (target negative cells).
(§4) Serial dilutions of free drug in 100% DMSO (1:4 10 pts starting from 100 uM) were prepared. Serially diluted payload was transferred into Opti-Mem with 0.1% BSA (10 uL into 990 uL media). Serial dilutions of ADCs/isotype controls at 1:4 in Opti-Mem with 0.1% BSA (starting from 5×1000 nM) were prepared. 20ul assay media diluted ADC/isotype conjugates as well as free drug were transferred to above cells. The plates were incubated at 37° C., 5% CO2 for 6 days. Plates were developed by adding 100ul CellTiter Glo 2.0. RT 5-10 min. Plates were read with Envision plate reader. Data was analyzed using Prism. Only inner 60 well are used for the assay. The edge wells were filled with media to prevent dry out.

Calu-3 = assay: anti-Her2 viability assay, Calu-3 cells (target positive); type: cell-based; conditions: Calu-3 target positive cells, 6 days; for IC50: Homo sapiens, 144 h, read-out: Calu-3 IC50
Description: as §1, §2, §3, §4

[1] = Mouse whole blood stability test; type: in vitro ADME
Description: In vitro stability of Linker-Prodrug in mouse whole blood Scheme 15. Metabolism of LP1 (M2980) in whole blood.
Stock solution of test compound was provided in 100% DMSO. The stock solution for each compound was diluted into 500 μM with mixture of 50% acetonitrile, then diluted into mouse blood to achieve a final concentration of 1.0 μM. 1.0 μM of test compound in duplicate was incubated in blood at 37° C. Aliquots of 50 uL sample was collected at 0, 15, 30, 60, 120, 240, 480 min, and 24 hours. Reactions were terminated at various time points (0, 15, 30, 60, 120, 240, 480 min, 24 hours) by adding 200 μL of ice-cold acetonitrile containing internal standard with 1% formic acid and then ultrasound for 30 seconds. Plate was centrifuged (4000 rpm, 15 min). 50 μL of supernatants were transferred into a daughter plate containing 200 μL of H2O in each well. The samples were mixed well and analyzed with UPLC-MS/MS.
A Waters liquid chromatographic system was used. Detection was performed on AP14000 Q-Trap and AP15500 mass spectrometer equipped with TurbolonSpray (ESI) Interface (Applied Biosystems, Concord, Ontario, Canada). Analyst 1.5 and 1.6.2 software packages (Applied Biosystems) were used to control the LC-MS/MS system, as well as for data acquisition and processing.
Chromatographic separation was achieved on the Wates BEH C18 column (50*2.1 mm ID, 1.7 μm). The column temperature was maintained at ambient temperature (25° C.). The flow rate was maintained at 0.6 mL/min and the following mobile phases were used: water (0.1% formic acid, v/v) (phase A) and acetonitrile (0.1% formic acid, v/v) (phase B).
Test compounds (1.0 μM) were incubated in blood at 37° C. in duplicate. Aliquots of 50 uL sample was collected at 0, 15, 30, 60, 120, 240, 480 min, and 24 hours. Reactions were terminated at various time points (0, 15, 30, 60, 120, 240, 480 min, 24 hours by adding 200 μL of ice-cold acetonitrile containing internal standard with 1% formic acid, then ultrasound for 30 seconds. The plate was centrifuged (4000 rpm, 15 min). 50 μL of supernatants were transferred into a daughter plate containing 200 μL of water in each well. Samples were mixed well and analyzed with UPLC-MS/MS.
The % was calculated based on initial 1 uM as 100% and the standard concentration curve.

SK-BR-3 cells = assay: SKBR3 cell-based anti-proliferation / viability assay (CellTiter-Glo); design: species or system human; conditions: for EC50: SK-BR-3, read-out: SKBR3 EC50
Description: as §1, §2, §3, §4
The cell line used in the anti-proliferation assays was SK-BR-3, a human breast, adenocarcinoma (pleural effusion) cell line; The cells were grown in McCoy's 5a Medium+10% FBS. To run the assay, the cells (80 μl, 1000 cells) were added to each well in a 96-well plate and incubated for 24 hours at 37° C. with CO2. Next, the cells were treated with test compounds (20 μl) at various concentrations in appropriate cell culture medium (total volume, 0.1 mL). The control wells contain cells and the medium but lack the test compounds. The plates were incubated for 144 hours at 37° C. with CO2. CTG reagent was then added to the wells (100 μl). After the plates were shaken for 10 min and then incubated for 10 min at room temperature, paste the clear bottom with white back seal and record luminescence with Envision. The inhibition % was calculated according to the following equation: inhibition %=[1-(assay-blank)/(control-blank)]×100.

NCI-N87 cells = assay: anti-Her2 viability assay, NCI-N87 cells (target positive); type: cell-based; conditions: NCI-N87 target positive cells, 6 days; for IC50: Homo sapiens, 144 h, read-out: N87 IC50
Description: as §1, §2, §3, §4

in vitro = conditions: human, plasma
JIMT-1 = assay: in vitro cell killing activity, JIMT-1 cells (CellTiter Glo viability); type: cell-based; conditions: JIMT-1 cells; for IC50: Homo sapiens, read-out: JIMT-1 IC50
Description: as §4

[2] = SKBR3 target positive cells, 6 days
[3] = whole blood, mouse blood, read-out: Mouse blood stability T1/2 (converted)

CC[C@@]1(O)C(=O)OCc2c1cc1n(c2=O)Cc2c-1nc1cc(F)c(C)c3c1c2[C@@H](NC(=O)COCNC(=O)[C@@H](N)CO)CC3 [P2, (2S)-2-amino-N-[({[(10S,23S)-10-ethyl-18-fluoro-10-hydroxy-19-methyl-5,9-dioxo-8-oxa-4,15-diazahexacyclo[14.7.1.0^2,14.0^4,13.0^6,11.0^20,24]tetracosa-1,6(11),12,14,16,18,20(24)-heptaen-23-yl]carbamoyl}methoxy)methyl]-3-hydroxypropanamide]
IC50 (NCI-H1975 cells): 19.9 nM | H1975 % Kill (NCI-H1975 cells): 98.0% | Calu-3 % Kill (Calu-3): 93.2% | IC50 (Calu-3): 5.68 nM | half-life at 1 μM ([1]; mouse, blood): 2.5 h | Mouse blood stability % Remaining at 24 h ([1]; mouse, blood, 1 μM): 34.1% | EC50 (SK-BR-3 cells; Homo sapiens): 5.89 nM | SKBR3 % Kill (SK-BR-3 cells; [2]): 97.0% | IC50 (NCI-N87 cells): 8.93 nM | N87 % Kill (NCI-N87 cells): 98.4% | Human plasma stability % Remaining at 24 h: 80.4% | half-life (in vitro): 65.4 h | IC50 (JIMT-1): 23.8 nM | JIMT-1 % Kill (JIMT-1): 92.7%

CC[C@@]1(O)C(=O)OCc2c1cc1n(c2=O)Cc2c-1nc1cc(F)c(C)c3c1c2[C@@H](NC(=O)COCNC(=O)[C@@H](N)CCC(=O)O)CC3 [P4, (4S)-4-amino-4-{[({[(10S,23S)-10-ethyl-18-fluoro-10-hydroxy-19-methyl-5,9-dioxo-8-oxa-4,15-diazahexacyclo[14.7.1.0^2,14.0^4,13.0^6,11.0^20,24]tetracosa-1,6(11),12,14,16,18,20(24)-heptaen-23-yl]carbamoyl}methoxy)methyl]carbamoyl}butanoic acid]
IC50 (NCI-H1975 cells): 24.1 nM | H1975 % Kill (NCI-H1975 cells): 96.8% | Calu-3 % Kill (Calu-3): 93.7% | IC50 (Calu-3): 5.67 nM | Mouse blood stability % Remaining at 24 h ([1]; mouse blood): 66.1% | half-life at 1 μM [1, 3]: 9.2 h | EC50 (SK-BR-3 cells; Homo sapiens): 6.63 nM | SKBR3 % Kill (SK-BR-3 cells; [2]): 96.6% | IC50 (NCI-N87 cells): 9.84 nM | N87 % Kill (NCI-N87 cells): 97.7% | half-life (Human plasma stability): 107 h | Human plasma stability % Remaining at 24 h (Human plasma stability): 90.4% | IC50 (JIMT-1): 20.7 nM | JIMT-1 % Kill (JIMT-1): 92.0%

CC[C@@]1(O)C(=O)OCc2c1cc1n(c2=O)Cc2c-1nc1cc(F)c(C)c3c1c2[C@@H](NC(=O)COCNC(=O)CN)CC3 [P1, 2-Amino-N-[({[(10S,23S)-10-ethyl-18-fluoro-10-hydroxy-19-methyl-5,9-dioxo-8-oxa-4,15-diazahexacyclo[14.7.1.0^2,14.0^4,13.0^6,11.0^20,24]tetracosa-1,6(11),12,14,16,18,20(24)-heptaen-23-yl]carbamoyl}methoxy)methyl]acetamide]
IC50 (NCI-H1975 cells): 23.9 nM | H1975 % Kill (NCI-H1975 cells): 96.4% | Calu-3 % Kill (Calu-3): 93.1% | IC50 (Calu-3): 6.78 nM | half-life at 1 μM ([1]; mouse, blood): 0.63 h | Mouse blood stability % Remaining at 24 h ([1]; mouse, blood, 1 μM): 4.1% | IC50 (SK-BR-3 cells; Homo sapiens, SK-BR-3, 144 h, SKBR3 target positive cells, 6 days, CellTiter Glo, read-out: SKBR3 IC50): 5.81 nM | EC50 (SK-BR-3 cells; Homo sapiens): 9.52 nM | SKBR3 % Kill (SK-BR-3 cells; [2]): 96.0% | IC50 (NCI-N87 cells): 9.25 nM | N87 % Kill (NCI-N87 cells): 98.0% | Human plasma stability % Remaining at 24 h: 72.4% | half-life (in vitro): 49.6 h | IC50 (JIMT-1): 26.6 nM | JIMT-1 % Kill (JIMT-1): 89.8%

CC[C@@]1(O)C(=O)OCc2c1cc1n(c2=O)Cc2c-1nc1cc(F)c(C)c3c1c2[C@@H](NC(=O)COCNC(=O)[C@@H](N)CCC(N)=O)CC3 [P3, (2S)-2-amino-N-[({[(10S,23S)-10-ethyl-18-fluoro-10-hydroxy-19-methyl-5,9-dioxo-8-oxa-4,15-diazahexacyclo[14.7.1.0^2,14.0^4,13.0^6,11.0^20,24]tetracosa-1,6(11),12,14,16,18,20(24)-heptaen-23-yl]carbamoyl}methoxy)methyl]pentanediamide]
IC50 (NCI-H1975 cells): 54.5 nM | H1975 % Kill (NCI-H1975 cells): 88.5% | Calu-3 % Kill (Calu-3): 90.7% | IC50 (Calu-3): 15.9 nM | half-life at 1 μM ([1]; mouse, blood): 1 h | Mouse blood stability % Remaining at 24 h ([1]; mouse, blood, 1 μM): 6.5% | EC50 (SK-BR-3 cells; Homo sapiens): 11.6 nM | SKBR3 % Kill (SK-BR-3 cells; [2]): 94.3% | IC50 (NCI-N87 cells): 30.4 nM | N87 % Kill (NCI-N87 cells): 95.5% | Human plasma stability % Remaining at 24 h: 48.9% | half-life (in vitro): 24.1 h | IC50 (JIMT-1): 88.6 nM | JIMT-1 % Kill (JIMT-1): 81.3%

CC[C@@]1(O)C(=O)OCc2c1cc1n(c2=O)Cc2c-1nc1cc(F)c(C)c3c1c2[C@@H](NC(=O)COCNC(=O)[C@@H](N)Cc1ccccc1)CC3 [P7, (2S)-2-amino-N-[({[(10S,23S)-10-ethyl-18-fluoro-10-hydroxy-19-methyl-5,9-dioxo-8-oxa-4,15-diazahexacyclo[14.7.1.0^2,14.0^4,13.0^6,11.0^20,24]tetracosa-1,6(11),12,14,16,18,20(24)-heptaen-23-yl]carbamoyl}methoxy)methyl]-3-phenylpropanamide]
IC50 (NCI-H1975 cells): 8.96 nM | H1975 % Kill (NCI-H1975 cells): 98.8% | Calu-3 % Kill (Calu-3): 93.7% | IC50 (Calu-3): 3.32 nM | Mouse blood stability % Remaining at 24 h ([1]; mouse blood): 6.3% | half-life at 1 μM [1, 3]: 0.2 h | EC50 (SK-BR-3 cells; Homo sapiens): 1.98 nM | SKBR3 % Kill (SK-BR-3 cells; [2]): 97.0% | IC50 (NCI-N87 cells): 4.41 nM | half-life (Human plasma stability): 24.4 h | Human plasma stability % Remaining at 24 h (Human plasma stability): 51.3% | IC50 (JIMT-1): 13.2 nM | JIMT-1 % Kill (JIMT-1): 93.4%
